We go through 19 compounds from patent publication US6818765B1, “Benzene-sulphonamide derivatives and their uses” (Universite de Liege, priority 1999, dated 2004).

Where two headings read alike, the source gives them in different places.

The target of the assay is T1, thromboxane A2 receptors (TPα) of human platelets (Homo sapiens, UniProt P21731).
T1 construct: endogenous in cells; host or cells: human platelets
T1 sequence (P21731 1-343): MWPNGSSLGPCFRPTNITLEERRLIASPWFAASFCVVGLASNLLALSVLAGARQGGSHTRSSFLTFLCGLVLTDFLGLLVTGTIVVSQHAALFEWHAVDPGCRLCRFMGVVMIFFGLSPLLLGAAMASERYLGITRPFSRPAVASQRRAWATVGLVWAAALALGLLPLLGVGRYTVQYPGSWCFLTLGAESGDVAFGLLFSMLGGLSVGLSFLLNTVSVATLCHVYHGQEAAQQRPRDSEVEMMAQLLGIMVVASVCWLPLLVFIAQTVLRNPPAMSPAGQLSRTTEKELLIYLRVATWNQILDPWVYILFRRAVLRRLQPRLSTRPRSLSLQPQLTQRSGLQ
The assay can be described thus: Binding test: displacement of [3H]SQ-29.548 from human platelet thromboxane A2 receptors. The conditions noted are these: for inhibition at 1 µM: read-out: Affinity: percent of [3H]SQ-29.548 specifically substituted by the examined compound, compound 10^-6 M; for inhibition at 0.1 µM: read-out: Affinity: percent of [3H]SQ-29.548 specifically substituted by the examined compound, compound 10^-7 M. An excerpt:
To operate a first selection, the capacity of these compounds to displace in a specific way a tritium ligand, the [^3H]
Cozzi P., Giordani A., Menichincheri M., Pillan A., Pinciroli V., Rossi A., Tonani R., Volpi D., Tamburin M., Ferrario R., Fusar D., Salvati P.,—Agents combining thromboxane receptor antagonism with thromboxane synthase inhibition:[[[2-(1H-imidazol-1-yl)ethylidene]amino]oxy]alkanoic acids.—J. Med. Chem., 1994, 37, 3588-3604.
(In general: Loss of bound radioactivity is the signal in a displacement assay; it reports binding, not function.)

`CCCCCNC(=O)NS(=O)(=O)c1cc([N+](=O)[O-])ccc1Nc1ccccc1C` [Compound 94]: the “Affinity: percent of [3H]SQ-29.548 specifically substituted by the examined compound, 10^-6M” value (from here on “Affinity: percent … 10^-6M”) amounted to 98.4%. For the setting “read-out: IC 50: concentration required for replacing 50% of [3H]SQ-29.548 bound to receptors TPα”, the IC50 was 2.82 nM.

Regarding `Cc1cccc(C)c1Nc1ccc([N+](=O)[O-])cc1S(=O)(=O)NC(=O)NC(C)C` [Compound 91], the IC50 worked out at 3.31 nM, the inhibition at 1 µM was 97.3% and the inhibition at 0.1 µM was determined as 90.8%.

For `N#CN=C(NC1CCCCC1)NS(=O)(=O)c1cc([N+](=O)[O-])ccc1NC1CCCCC1` [Compound 5], the “Affinity: percent … 10^-6M” value was determined as 72.1%.

For the compound `Cc1ccc(Nc2ccc([N+](=O)[O-])cc2S(=O)(=O)NC(=O)NC(C)C)c(C)c1` [Compound 90], the IC50 was 5.46 nM, the inhibition at 1 µM came to 96.9% and the inhibition at 0.1 µM turned out to be 88.6%.

Turning to `Cc1cc(C)cc(Nc2ccc([N+](=O)[O-])cc2S(=O)(=O)NC(=O)NC(C)C)c1` [Compound 88], the IC50 was 16.2 nM, the inhibition at 1 µM is 95.4% and the inhibition at 0.1 µM is 82%.

For `O=C(NC1CCCCC1)NS(=O)(=O)c1cc([N+](=O)[O-])ccc1NC1CCCCCCC1` [Compound 23], the “Affinity: percent … 10^-6M” value is reported as 95.5% and the “Affinity: percent of [3H]SQ-29.548 specifically substituted by the examined compound, 10^-7M” value (“Affinity: percent … 10^-7M” below) is given as 62.9%.

For the compound `O=[N+]([O-])c1ccc(NC2CCCCC2)c(S(=O)(=O)NC(=S)NCc2ccco2)c1` [Compound 42], the “Affinity: percent … 10^-6M” value is recorded as 92.3% and the “Affinity: percent … 10^-7M” value is listed as 50.5%.

As for `CC(C)NC(=O)NS(=O)(=O)c1cc([N+](=O)[O-])ccc1NC1CCCCCCCCCCC1` [Compound 48], the “Affinity: percent … 10^-6M” value is given as 51.9%.

Consider `CC(C)NC(=S)NS(=O)(=O)c1cc([N+](=O)[O-])ccc1NCc1ccccc1` [Compound 36], for which the “Affinity: percent … 10^-6M” value is 75.6%.

For the compound `Cc1cccc(Nc2ccc([N+](=O)[O-])cc2S(=O)(=O)NC(=S)NC(C)C)c1` [Compound 11], the “Affinity: percent … 10^-6M” value was found to be 63.7%.

`CCCCCNC(=O)NS(=O)(=O)c1cc([N+](=O)[O-])ccc1Nc1ccc(C)cc1` [Compound 95]: the IC50 came to 1.45 nM and the inhibition at 1 µM is 98.5%.

As to `CC(C)NC(=O)NS(=O)(=O)c1cc([N+](=O)[O-])ccc1NC1CCCC1` [Compound 2], the “Affinity: percent … 10^-6M” value is 67.7%.

As to `Cc1ccc(Nc2ccc([N+](=O)[O-])cc2S(=O)(=O)NC(=O)NC(C)C)cc1` [Compound 50], the “Affinity: percent … 10^-6M” value was 95.7% and the “Affinity: percent … 10^-7M” value is given as 76.0%.

As for `CC(Nc1ccc([N+](=O)[O-])cc1S(=O)(=O)NC(=O)NC(C)(C)C)c1ccccc1` (racemic) [Compound 76], the IC50 was found to be 3.5 nM, the inhibition at 1 µM turned out to be 97.6% and the inhibition at 0.1 µM came out at 93.5%.

As to `CC(C)NC(=O)NS(=O)(=O)c1cc(I)ccc1NC1C=CCCC1` (stereo not shown) [Compound 72], the “Affinity: percent … 10^-6M” value was 86.5% and the “Affinity: percent … 10^-7M” value was found to be 52.7%.

For the compound `CC(C)NC(=NC#N)NS(=O)(=O)c1cc([N+](=O)[O-])ccc1NC1CCCCCC1` [Compound 8], the “Affinity: percent … 10^-6M” value is 33.0%.

With `Cc1ccc(Nc2ccc([N+](=O)[O-])cc2S(=O)(=O)NC(=O)NC(C)C)cc1C` [Compound 87], the IC50 turned out to be 18.1 nM, the inhibition at 1 µM is 95.6% and the inhibition at 0.1 µM stood at 76%.

As for `CCCCCCCCNC(=O)NS(=O)(=O)c1cc([N+](=O)[O-])ccc1NC1CCCCC1` [Compound 85], the IC50 came out at 107 nM, the inhibition at 1 µM is 92.9% and the inhibition at 0.1 µM is 42.5%.

Consider `Cc1cccc(Nc2ccc(C#N)cc2S(=O)(=O)NC(=O)NC(C)C)c1` [Compound 24], for which the “Affinity: percent … 10^-6M” value is on record as 73.7%.
